Results reported in patent US6703403B2, “Method for improving pharmacokinetics” (Abbott Laboratories, priority 1995, dated 2004).
Blank lines part the entries; values can stand above or below the molecule they belong to.

Tests used:
[1] = Pharmacokinetics of HIV protease inhibitors in rats, alone vs. in combination with ritonavir; assay type: in vivo; conditions: rat, po, 10 mg/kg; for AUC(0-t): read-out: AUC (0-8 h)
Protocol: Rats (male, Sprague-Dawley derived, 0.3-0.45 kg) were fasted overnight prior to dosing, but were permitted water ad libitum. […] The solutions, administered orally by gavage to a group of rats at a dose volume of 2 ml/kg, provided a 10 mg/kg dose of each compound. […] The plasma was separated from the red cells by centrifugation and frozen (−30° C.) until analysis. […] The peak plasma concentration (Cmax) and time to peak plasma concentration (Tmax) for each rat were obtained directly from the plasma concentration data. The area under the curve was calculated by the trapezoidal method over the time course of the study. The plasma elimination half life was obtained from NONLIN84 or from a log-linear regression of the terminal plasma concentrations as a function of time after dosing. Each combination was evaluated in a group containing at least three rats; the values reported are averages for each group of animals. The data obtained from the combination was compared to data obtained from a separate group of rats which received a single, separate dose of the compound under evaluation.

[2] = Pharmacokinetics of clarithromycin in humans, alone vs. in combination with ritonavir; assay type: in vivo; conditions: oral, healthy human volunteers, 500 mg every 12 hours, single agent, day four of dosing, plasma
From the text: Blood samples were collected on day four of dosing for HPLC determination of plasma concentrations of clarithromycin. Below in Table 2 are shown the results from the pharmacokinetic experiments with clarithromycin in humans.

[3] = male, Sprague-Dawley, plasma, oral gavage 10 mg/kg, compound administered as a single agent, plasma
[4] = male, Sprague-Dawley, plasma, oral gavage 10 mg/kg, compound administered as a single agent, plasma, read-out: Cmax
[5] = male, Sprague-Dawley, plasma, oral gavage 10 mg/kg, compound administered as a single agent, plasma, read-out: Tmax
[6] = male, Sprague-Dawley, plasma, oral gavage 10 mg/kg, dosed in combination with ritonavir 10 mg/kg, plasma
[7] = male, Sprague-Dawley, plasma, oral gavage 10 mg/kg, dosed in combination with ritonavir 10 mg/kg, plasma, read-out: Cmax
[8] = male, Sprague-Dawley, plasma, oral gavage 10 mg/kg, dosed in combination with ritonavir 10 mg/kg, plasma, read-out: Tmax

SMILES: Cc1c(O)cccc1C(=O)NC(CSc1ccccc1)C(O)CN1CC2CCCCC2CC1C(=O)NC(C)(C)C (centres unmarked) [AG1343]
AUC(0-t) [1, 3]: 1140 ng·h/mL
Cmax [1, 4]: 400 ng/mL
Tmax [1, 5]: 45 min
AUC(0-t) [1, 6]: 11900 ng·h/mL
Cmax [1, 7]: 1810 ng/mL
Tmax [1, 8]: 240 min

SMILES: CC(C)[C@H](NC(=O)N(C)Cc1ccccn1)C(=O)N[C@@H](Cc1ccccc1)[C@H](O)[C@H](O)[C@H](Cc1ccccc1)NC(=O)[C@@H](NC(=O)N(C)Cc1ccccn1)C(C)C [Compound A-77003, (2S,3R,4S,5S)-2,5-Di-(N-((N-methyl)-N-((2-pyridinyl)methyl)amino)carbonylvalinylamino)-3,4-dihydroxy-1,6-diphenyl hexane]
AUC(0-t) [1, 3]: 25 ng·h/mL
Cmax [1, 4]: 70 ng/mL
Tmax [1, 5]: 15 min
AUC(0-t) [1, 6]: 1390 ng·h/mL
Cmax [1, 7]: 960 ng/mL
Tmax [1, 8]: 40.2 min

SMILES: CC(C)[C@H](NC(=O)OCc1ccccn1)C(=O)N[C@@H](Cc1ccccc1)[C@@H](O)C[C@H](Cc1ccccc1)NC(=O)OCc1cccnc1 [Compound A-80987]
AUC (0-8 h) ([1]; in vivo): 1450 ng·h/mL
Cmax ([1]; in vivo): 2420 ng/mL
Tmax ([1]; in vivo): 15 min

SMILES: CC(C)CN(CC(O)C(Cc1ccccc1)NC(=O)OC1CCOC1)S(=O)(=O)c1ccc(N)cc1 (centres unmarked) [VX-478]
AUC(0-t) ([1]; male, Sprague-Dawley, in vivo, oral gavage 10 mg/kg, compound administered as a single agent, plasma): 1690 ng·h/mL
Cmax ([1]; male, Sprague-Dawley, in vivo, oral gavage 10 mg/kg, compound administered as a single agent, plasma, read-out: Cmax): 1610 ng/mL
Tmax ([1]; male, Sprague-Dawley, in vivo, oral gavage 10 mg/kg, compound administered as a single agent, plasma, read-out: Tmax): 25.2 min
AUC(0-t) ([1]; male, Sprague-Dawley, in vivo, oral gavage 10 mg/kg, dosed in combination with ritonavir 10 mg/kg, plasma): 13500 ng·h/mL
Cmax ([1]; male, Sprague-Dawley, in vivo, oral gavage 10 mg/kg, dosed in combination with ritonavir 10 mg/kg, plasma, read-out: Cmax): 2880 ng/mL
Tmax ([1]; male, Sprague-Dawley, in vivo, oral gavage 10 mg/kg, dosed in combination with ritonavir 10 mg/kg, plasma, read-out: Tmax): 90 min

Now from value to molecule:

AUC (0-8 h) ([1]; male, Sprague-Dawley, in vivo): 810 ng·h/mL
Tmax ([1]; male, Sprague-Dawley, in vivo): 30 min
Cmax ([1]; male, Sprague-Dawley, in vivo, Cmax): 1030 ng/mL
SMILES: CC(C)(C)NC(=O)[C@@H]1CN(Cc2cccnc2)CCN1C[C@@H](O)C[C@@H](Cc1ccccc1)C(=O)N[C@H]1c2ccccc2C[C@H]1O [MK-639, N-(2(R)-hydroxy-1 (S)-indanyl)-2(R)-phenylmethyl-4(S)-hydroxy-5-(1-(4-(3-pyridylmethyl)-2(S)-N′-(t-butylcarboxamido)-piperazinyl))-pentaneamide]

AUC (0-8 h) ([1]; male, Sprague-Dawley, in vivo): 29 ng·h/mL
Cmax ([1]; male, Sprague-Dawley, in vivo): 80 ng/mL
Tmax ([1]; male, Sprague-Dawley, in vivo): 10.8 min
SMILES: CC(C)(C)NC(=O)[C@@H]1C[C@@H]2CCCC[C@@H]2CN1C[C@@H](O)[C@H](Cc1ccccc1)NC(=O)[C@H](CC(N)=O)NC(=O)c1ccc2ccccc2n1 [Saquinavir, N-tert-butyl-decahydro-2-[2(R)-hydroxy-4-phenyl-3(S)-[[N-(2-quinolylcarbonyl)-L-asparaginyl]amino]butyl]-(4aS, 8aS)-isoquinoline-3(S)-carboxamide]

Cmax [2]: 3930 ng/mL
AUC(0-t) ([2]; read-out: AUC (0-24 h)): 49000 ng·h/mL
SMILES: CC[C@H]1OC(=O)[C@H](C)[C@@H](O[C@H]2C[C@@](C)(OC)[C@@H](O)[C@H](C)O2)[C@H](C)[C@@H](O[C@@H]2O[C@H](C)C[C@H](N(C)C)[C@H]2O)[C@](C)(OC)C[C@@H](C)C(=O)[C@H](C)[C@@H](O)[C@]1(C)O [clarithromycin]
